Experimental findings from PubChem BioAssay AID179 (DTP/NCI, 2004) are described below.

Each structure is given as a SMILES string. Activity calls are given as the source filed them.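 Rule for the calls: active = compounds giving half or more protection of infected cells from virus-caused growth loss, again on retest; inactive = the rest.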

This test relates to CEM cells HIV-1 protection, formazan growth assay. The test is described as follows: NCI AIDS Antiviral Assay. The note with it: for IC50: measured here: growth of uninfected CEM cells. In short, it runs like this: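 Soluble formazan readout of cell growth; CEM cells ± HIV-1; 5 drug concs. ≥50% protection → retest; ≥50% again = moderately active; reproducible 100% = confirmed active.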

Usually EC50 stands for the concentration giving half of the maximal effect. Broadly, the IC50 is the concentration that gives 50% inhibition. Read a high IC50 as lower potency. Consider `COc1cc2cccc(N=Cc3c(Br)ccc(OC)c3OC(C)C)c2cc1OC`, for which the EC50 was more than 3.16 µM and the IC50 was more than 3.16 µM.

For `CCOC(=O)c1cccnc1C(OC(C)=O)OC(C)=O`, the EC50 is more than 891 µM and the IC50 came out at 158 µM. With `CC(=O)O[C@@H]1[C@H]2O[C@H]2[C@H]2O[C@@]2(COC(=O)c2ccccc2)[C@H]1OC(C)=O`, the EC50 was more than 200 µM and the IC50 amounted to 91.2 µM. For `COc1ccc(N2C(=O)/C(=C/c3ccc(N(CCC#N)CCC#N)cc3C)N=C2/C=C\c2ccccc2)cc1`, in that order: more than 14.1 µM and more than 14.1 µM. Turning to `CCOc1ccc(/C=C2/C(=O)N=C(N)N=C2N)cc1OCC`, the outcome was inactive.

As to `NC1=NC(OCC2(CO)CCC2)C=C(NCC2(CO)CCC2)N1` (configuration not stated), the EC50 was more than 200 µM and the IC50 is more than 100 µM.

With `Cc1ncc(C(N)=O)c2c1OC(C)(C)OC2`, the EC50 is more than 200 µM and the IC50 is more than 200 µM. `CON(C)C(=O)C(C)NC(=O)OC(C)(C)C` (configuration not stated): the EC50 is more than 155 µM and the IC50 is more than 155 µM.

For the compound `COC(=O)c1c(C#N)[nH]c(-c2ccsc2)c1C(=O)OC`, the EC50 is more than 200 µM and the IC50 turned out to be 52.5 µM.

Turning to `Cc1ccc(SCC(OCn2cnc3c(N)ncnc32)[C@H](C)F)cc1` (some centres not stated), the EC50 was more than 200 µM and the IC50 worked out at 191 µM.

As to `CCN(CC)CCCC(C)Nc1c2cc(OC)cc(C)c2nc2c(C)c(Cl)ccc12` (configuration not stated), the result was inactive.

Take `O=c1[nH]c(=O)ss1`: the 50% effective concentration (EC50) is more than 105 µM and the IC50 was more than 100 µM. Consider `Nc1ncc(N)c(N)n1`, for which the EC50 was more than 200 µM and the IC50 is 132 µM.

In the case of `COc1c(N2CCCCC2)c2c(=O)c3ccccc3oc2c2cc(C)oc12`, the EC50 was more than 200 µM and the IC50 was 11.2 µM.

`CCOCCCCS(=O)(=O)O`: the EC50 is more than 200 µM and the IC50 was more than 200 µM. With `CN1C[C@H]2[C@@H](C1=O)[C@H](c1ccccc1)ON2C`, the EC50 was more than 200 µM and the concentration for half-maximal inhibition (IC50) is more than 200 µM. Consider `O=Cc1ccc(-c2cccs2)s1`, for which the outcome was inactive. With `CC1(C)O[C@H]2OC(CO)C(OS(C)(=O)=O)[C@H]2O1` (some centres not stated), the EC50 is more than 200 µM and the IC50 is more than 200 µM. With `CN(/N=C/c1ccccn1)C1=NCCCCN1`, the EC50 is more than 200 µM and the IC50 is more than 200 µM.

Consider `CC[C@@H]1CC2CN3CCc4c([nH]c5cc(OC)ccc45)C(C(=O)OC)(C2)C13` (some centres not stated), for which the result was inactive. On to `OC(Cc1ccc2ccccc2c1)CN1CCC(c2ccccc2)CC1` (configuration not stated), for which the EC50 is more than 93.3 µM and the IC50 stood at 37.2 µM. In the case of `Cc1cccc(N=Cc2ccc(N(CCC#N)S(=O)(=O)c3ccccc3)cc2C)c1`, the EC50 is more than 224 µM and the IC50 turned out to be 145 µM.

In the case of `O=S(=O)([O-])[O-].[Fe+2].[OH2+]c1c(Cl)cc(Cl)cc1/C=N/Nc1ccccn1`, the outcome was inactive. `CC(C)(C)NC(=O)CCC1C(C(=O)NC(C)(C)C)C2(Cl)C(Cl)=C(Cl)C1(Cl)C2(Cl)Cl` (configuration not stated): the EC50 was more than 200 µM and the IC50 is more than 200 µM.

For `CC(=O)N1N=C(c2ccccc2Nc2ccccc2C2=NN(C(C)=O)C(c3ccccc3)O2)OC1c1ccccc1` (configuration not stated), the EC50 is more than 200 µM and the IC50 came to 6.17 µM. For `C#CCOC(=O)c1ccc(OC(C)=O)cc1`, the EC50 was more than 200 µM and the IC50 was 191 µM.

As to `Cc1ccc(S(=O)(=O)OC(F)(F)C(F)(F)F)cc1`, the EC50 was more than 234 µM and the IC50 was more than 234 µM.

On to `C/C(O)=C(\C=N\C(N)=S)C(=O)Nc1ccccc1C`, for which the EC50 is more than 200 µM and the IC50 was more than 200 µM.

On to `Nc1ccc(Cc2c(N)[nH]c(=O)[nH]c2=O)cc1`, for which the EC50 was more than 200 µM and the IC50 is more than 200 µM. On to `CC1=NN(C(=O)CC(=O)Nc2ccccc2Cl)C(=O)C1N=Nc1ccc(S(=O)(=O)c2ccc(N=NC3C(=O)N(C(=O)CC(=O)Nc4ccccc4Cl)N=C3C)cc2)cc1` (configuration not stated), for which the EC50 is more than 100 µM and the IC50 is more than 100 µM. Take `N#CC(C#N)=Cc1c(O)ccc2ccccc12`: the EC50 was more than 200 µM and the 50% inhibitory concentration (IC50) stood at 9.77 µM. The like results for `CC1(C)CC(=O)C(C=NC(=S)C(N)=S)=C(O)C1` were, in that order, more than 200 µM and 37.2 µM. For the compound `C=CCO[C@H]1CC[C@@]2(C)C(CC[C@]3(C)C2CC=C2[C@@H]4[C@@H](C)C(C)CC[C@]4(C(=O)O)CCC23C)C1(C)C` (some centres not stated), the result was inactive. Take `Cc1cn(CCCCCCOC(=O)NC(CCCN=C(N)N)C(=O)O)c(=O)[nH]c1=O` (configuration not stated): the EC50 was more than 200 µM and the IC50 is more than 200 µM. As for `NC1=NC(N)=N1`, the EC50 is more than 2950 µM and the IC50 was more than 2950 µM. For the compound `CC(C)OC(=S)Nc1ccc(Cl)c(/C=N/OC(C)(C)C)c1`, the 50% effective concentration (EC50) was more than 24 µM and the IC50 came out at 23.4 µM. As to `CCC(=O)N=c1sc(SCc2ccccc2)nn1C(=O)SC` (tested in a mixture with another compound), the EC50 is more than 200 µM and the IC50 was found to be 10.7 µM. As for `COC[C@H](C)N=CN1CCc2ccccc2C1(Cc1ccccc1)Cc1ccccc1`, the EC50 is more than 33.1 µM and the IC50 was more than 33.1 µM. With `CNc1nnc(CNc2ccc(-c3nnc(NC)n3N)cc2)n1N`, the EC50 is more than 200 µM and the half-maximal inhibitory concentration (IC50) is more than 200 µM. Consider `Cc1cc(S(=O)(=O)Nc2nc3ccccc3n2-c2ccccc2)c(S)cc1Cl`, for which the EC50 was more than 200 µM and the IC50 was determined as 162 µM. On to `O=c1[nH]c2ccccc2nc1/C=C/NC(=S)NCc1ccccc1`, for which the result was inactive.

With `O=c1c2cc(Cl)ccc2sc2cccc(Cl)c12`, the EC50 was more than 1.35 µM and the IC50 is more than 1.35 µM.

For the compound `[N-]=[N+]=NCc1cccc(Nc2cc(=O)[nH]c(=O)[nH]2)c1`, the EC50 was 49 µM and the IC50 was more than 200 µM.

Regarding `COc1ccc2cc(-c3ccc(OC)c(OC)c3)c(=O)oc2c1`, the EC50 was more than 200 µM and the IC50 is more than 200 µM. In the case of `CCOC(=O)C(OP(=O)(OCC)OCC)C(F)(F)F` (configuration not stated), the EC50 was more than 200 µM and the half-inhibitory concentration (IC50) was more than 200 µM.

As for `O=C1NC2(CCCC2)C(=O)N2CCCC12` (configuration not stated), the EC50 was more than 129 µM and the IC50 was more than 129 µM. As to `N#Cc1c(-c2ccc(Cl)cc2)c(C#N)c(=O)n(NS(=O)(=O)c2ccccc2)c1S`, the EC50 is more than 200 µM and the IC50 was found to be 17 µM.

On to `CC(=O)Nc1ccc(C(=O)N2N=C(C)/C(=C/c3ccccc3O)C2=O)cc1`, for which the EC50 was more than 51.3 µM and the IC50 was more than 51.3 µM. On to `CN(C)P(CCP(C)C)N(C)C`, for which the EC50 is more than 174 µM and the 50% inhibitory concentration (IC50) is more than 174 µM.

For `CCN(CC)c1ccc(N=Nc2ccc(-c3nc4cccnc4o3)cc2)cc1`, the EC50 is more than 19.5 µM and the IC50 was more than 19.5 µM.

`Clc1ccccc1C(n1ncc2ccccc21)n1ncc2ccccc21`: the result was inactive. `O=C(OCCN1CCNCC1)c1cc2ccccc2[nH]1`: the EC50 was more than 200 µM and the IC50 was determined as 26.9 µM. The like results for `CC(=O)OC1CN2CCC1CC2` (configuration not stated) were, in that order, more than 200 µM and more than 200 µM. On to `NC(=O)C(N/N=C(/C(=O)c1ccccc1)c1ccccc1)c1ccccc1` (configuration not stated), for which the EC50 is more than 200 µM and the IC50 was 44.7 µM. Regarding `O=c1[nH]c2ccccc2c2oc3ccccc3c12`, the EC50 is more than 200 µM and the IC50 is more than 200 µM.
